Experimental data as given in patent US20250195524A1, “PYRIMIDO-PYRIDAZINONE COMPOUND AS TOLL-LIKE RECEPTOR AGONIST” (SHANGHAI VISONPHARMA CO., LTD., priority 2022, published 2025).

Assays:
human TLR8 = molecular target: T1, human TLR8 (Homo sapiens, UniProt Q9NR97); experiment: HEK-Blue hTLR8 SEAP reporter gene agonism assay; assay type: cell-based; details: HEK-Blue hTLR8 cells, SEAP (Quanti-blue, 650 nm), 16-22 hours incubation
T1 construct: host or cells: HEK-Blue hTLR8 (HEK293-derived reporter cells)
T1 sequence (Q9NR97 27-1041): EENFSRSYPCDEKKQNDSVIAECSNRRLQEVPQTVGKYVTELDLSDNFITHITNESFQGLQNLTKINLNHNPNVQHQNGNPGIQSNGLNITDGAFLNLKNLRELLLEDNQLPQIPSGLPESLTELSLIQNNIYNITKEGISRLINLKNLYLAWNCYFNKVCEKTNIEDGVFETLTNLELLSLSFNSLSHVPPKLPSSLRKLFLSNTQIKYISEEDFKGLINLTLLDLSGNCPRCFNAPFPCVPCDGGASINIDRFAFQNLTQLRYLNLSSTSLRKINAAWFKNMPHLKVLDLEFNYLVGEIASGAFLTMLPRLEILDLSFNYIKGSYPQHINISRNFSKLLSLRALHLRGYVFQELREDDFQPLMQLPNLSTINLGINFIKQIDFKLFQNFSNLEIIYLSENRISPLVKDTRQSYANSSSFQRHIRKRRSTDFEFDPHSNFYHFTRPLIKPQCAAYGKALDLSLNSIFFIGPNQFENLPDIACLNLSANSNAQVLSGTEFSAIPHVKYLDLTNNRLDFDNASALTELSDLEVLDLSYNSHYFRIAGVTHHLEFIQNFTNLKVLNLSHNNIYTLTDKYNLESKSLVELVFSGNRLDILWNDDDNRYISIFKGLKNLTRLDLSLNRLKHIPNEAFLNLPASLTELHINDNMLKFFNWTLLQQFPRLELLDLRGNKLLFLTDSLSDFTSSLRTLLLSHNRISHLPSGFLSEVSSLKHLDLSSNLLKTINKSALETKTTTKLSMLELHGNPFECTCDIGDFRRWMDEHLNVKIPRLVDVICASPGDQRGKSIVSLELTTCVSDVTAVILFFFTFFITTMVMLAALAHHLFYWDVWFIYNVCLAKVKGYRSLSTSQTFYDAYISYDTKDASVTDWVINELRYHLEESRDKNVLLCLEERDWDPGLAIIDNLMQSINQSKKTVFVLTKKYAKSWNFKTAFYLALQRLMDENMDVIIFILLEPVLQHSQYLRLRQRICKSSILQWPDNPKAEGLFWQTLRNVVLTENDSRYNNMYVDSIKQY
Experimental: (§1) The agonistic activity of the compounds of the present invention on TLR7 or TLR8 was evaluated using HEK-Blue™ cells stably expressing human TLR7 or TLR8. And the agonistic activity was assayed using their ability to induce the SEAP reporter gene under the control of the IFN-β minimal promoter fused to five NF-κB and ap-1 binding sites, specifically as follows:
(§2) HEK-Blue™ hTLR7 (Invivogen, 80,000 cells per well) or HEK-Blue™ hTLR8 (Invivogen, 60,000 cells per well) was added to a 96-well cell culture plate, the compound to be tested is added whereafter, and the final concentration of the compound(s) to be tested in the medium ranged from 0.001 to 36 μM, then incubated for 16-22 hours. SEAP levels in the cell culture medium were detected using HEK-Blue assay reagent Quanti-blue (Invivogen) according to the manufacturer's instructions. Neo2 Multifunctional Enzyme Labeler (Bio-tek) was used to determine the light absorption at 650 nm. GraphPad Prism was utilized to calculate the EC50, which is the half effective concentration of the drug.

human TLR7 = molecular target: T2, human TLR7 (Homo sapiens, UniProt Q9NYK1); experiment: HEK-Blue hTLR7 SEAP reporter gene agonism assay; assay type: cell-based; details: HEK-Blue hTLR7 cells, SEAP (Quanti-blue, 650 nm), 16-22 hours incubation
T2 construct: host or cells: HEK-Blue hTLR7 (HEK293-derived reporter cells)
T2 sequence (Q9NYK1 27-1049): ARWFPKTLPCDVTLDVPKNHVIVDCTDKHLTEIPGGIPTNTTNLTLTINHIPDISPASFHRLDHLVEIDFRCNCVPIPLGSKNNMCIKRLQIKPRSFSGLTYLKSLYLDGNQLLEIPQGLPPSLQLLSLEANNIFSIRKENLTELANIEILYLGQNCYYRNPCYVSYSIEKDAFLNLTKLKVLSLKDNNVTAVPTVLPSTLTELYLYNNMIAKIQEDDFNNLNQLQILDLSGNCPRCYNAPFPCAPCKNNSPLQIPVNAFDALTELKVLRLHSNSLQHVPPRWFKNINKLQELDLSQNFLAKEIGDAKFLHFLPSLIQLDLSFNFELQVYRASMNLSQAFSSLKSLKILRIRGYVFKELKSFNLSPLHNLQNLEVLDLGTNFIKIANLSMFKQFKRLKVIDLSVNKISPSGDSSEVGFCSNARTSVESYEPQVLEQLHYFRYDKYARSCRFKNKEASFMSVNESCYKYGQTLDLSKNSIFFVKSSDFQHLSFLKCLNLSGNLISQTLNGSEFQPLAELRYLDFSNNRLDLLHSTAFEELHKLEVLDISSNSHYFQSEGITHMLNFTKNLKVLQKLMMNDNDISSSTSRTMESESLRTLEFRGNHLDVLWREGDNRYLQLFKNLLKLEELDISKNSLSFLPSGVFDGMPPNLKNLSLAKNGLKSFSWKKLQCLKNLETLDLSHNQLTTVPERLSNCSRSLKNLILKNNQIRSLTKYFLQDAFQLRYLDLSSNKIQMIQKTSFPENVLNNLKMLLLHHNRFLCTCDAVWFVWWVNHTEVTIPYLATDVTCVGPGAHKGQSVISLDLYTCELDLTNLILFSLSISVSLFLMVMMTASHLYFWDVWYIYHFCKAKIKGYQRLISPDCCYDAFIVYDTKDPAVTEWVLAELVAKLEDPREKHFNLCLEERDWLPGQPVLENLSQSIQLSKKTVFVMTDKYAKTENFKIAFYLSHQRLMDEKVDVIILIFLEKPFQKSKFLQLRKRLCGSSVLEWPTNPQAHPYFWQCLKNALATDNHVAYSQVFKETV
Experimental: as §1, §2

## CCC[C@@H](C)Nc1nc(N)nc2cnn(Cc3ccc(C4CCN(C)CC4)cc3)c(=O)c12 [Compound I-57, (R)-2-amino-6-(4-(1-methylpiperidin-4-yl)benzyl)-4-(pentan-2-ylamino)pyrimido[4,5-d]pyridazin-5(6H)-one]
Human TLR8
  EC50: 107 nM
Human TLR7
  EC50: 407 nM
